Experimental data from PMC10233829 (ACS Omega, 2023).
Values after ≈ are worked out from the molar mass of the structure shown.

Key:
[1] = test system: S. epidermidis ATCC 12228; assay: MIC, twofold microdilution, standard strain; type: cell-based; conditions: Staphylococcus epidermidis, ATCC12228, 18 h
[2] = test system: S. aureus ATCC 29213; assay: MIC, twofold microdilution, standard strain; type: cell-based; conditions: Staphylococcus aureus, ATCC29213, 18 h
[3] = test system: S. epidermidis 4341; assay: MIC, twofold microdilution, clinical strain; type: cell-based; conditions: Staphylococcus epidermidis, 18 h
[4] = test system: P. aeruginosa 659; assay: MIC, twofold microdilution, clinical strain; type: cell-based; conditions: Pseudomonas aeruginosa, 18 h
[5] = test system: S. aureus T5591; assay: MIC, twofold microdilution, clinical strain; type: cell-based, Staphylococcus aureus; conditions: for MIC: Staphylococcus aureus, T5591, 18 h
[6] = test system: S. aureus T5595; assay: MIC, twofold microdilution, clinical strain; type: cell-based, Staphylococcus aureus; conditions: for MIC: Staphylococcus aureus, T5595, 18 h
[7] = test system: S. aureus NCTC 4163; assay: MIC, twofold microdilution, standard strain; type: cell-based; conditions: Staphylococcus aureus, NCTC4163, 18 h
[8] = test system: M. tuberculosis Spec. 192; assay: Tuberculostatic activity, Microplate Alamar Blue Assay (MIC); type: cell-based; conditions: Mycobacterium tuberculosis, MABA, read-out: MIC M. tuberculosis Spec. 192 (sensitive to tuberculostatics)
[9] = test system: S. epidermidis 5253; assay: MIC, twofold microdilution, clinical strain; type: cell-based, Staphylococcus epidermidis; conditions: Staphylococcus epidermidis, 5253, 18 h
[10] = test system: PC3 cells; assay: MTT assay, cytotoxic activity; type: cell-based, human; conditions: for IC50: MTT, 72 h
Method in brief: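 PC3 cells were grown at 37 °C/5% CO2 and exposed to test compounds. Viability came from MTT reduction, as test absorbance over untreated-control absorbance × 100%.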

[11] = test system: S. epidermidis ATCC 35984; assay: MIC, twofold microdilution, standard strain; type: cell-based; conditions: Staphylococcus epidermidis, ATCC35984, 18 h
[12] = MTT assay, cytotoxic activity; type: cell-based; conditions: human, HaCaT cells (immortal keratinocytes); MTT, 72 h, normal cell line; read-out: IC50 HaCaT
Method in brief: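 MTT assay on cells grown at 37 °C/5% CO2. Viability is expressed as relative MTT reduction: test absorbance divided by untreated-control absorbance, ×100%.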

[13] = test system: S. aureus ATCC 25923; assay: MIC, twofold microdilution, standard strain; type: cell-based; conditions: Staphylococcus aureus, ATCC25923, 18 h
[14] = test system: E. coli 520; assay: MIC, twofold microdilution, clinical strain; type: cell-based; conditions: Escherichia coli, 18 h
[15] = test system: S. pasteuri KR 4358; assay: MIC, twofold microdilution, clinical strain; type: cell-based; conditions: Staphylococcus pasteuri, KR4358, 18 h
[16] = test system: K. pneumoniae 510; assay: MIC, twofold microdilution, clinical strain; type: cell-based, Klebsiella pneumoniae; conditions: for MIC: Klebsiella pneumoniae, 510, clinical strain, 18 h; for share of the reference (CP) activity: Klebsiella pneumoniae rods
[17] = test system: P. aeruginosa ATCC 15442; assay: MIC, twofold microdilution, standard strain; type: cell-based, Pseudomonas aeruginosa; conditions: for MIC: Pseudomonas aeruginosa, ATCC15442, standard strain, 18 h; for MIC used in biofilm eradication assay, P. aeruginosa 15442: Table S1, MIC
[18] = test system: E. coli 951; assay: MIC, twofold microdilution, clinical strain; type: cell-based; conditions: Escherichia coli, 18 h
[19] = test system: clinical bacterial strains; assay: MIC, clinical isolates as groups of strains; type: cell-based
[20] = test system: S. epidermidis KR4243/1; assay: MIC, twofold microdilution, clinical strain; type: cell-based; conditions: Staphylococcus epidermidis, 18 h
[21] = test system: S. aureus 180; assay: MIC, twofold microdilution, clinical strain; type: cell-based; conditions: Staphylococcus aureus, 18 h
[22] = test system: E. coli ATCC 25922; assay: MIC, twofold microdilution, standard strain; type: cell-based, Escherichia coli; conditions: for MIC: Escherichia coli, ATCC25922, standard strain, 18 h; for MIC used in biofilm eradication assay, E. coli ATCC 25922: Table S1, MIC
[23] = test system: K. pneumoniae 28; assay: MIC, twofold microdilution, clinical strain; type: cell-based; conditions: Klebsiella pneumoniae, 18 h
[24] = test system: S. aureus ATCC 6538; assay: MIC, twofold microdilution, standard strain; type: cell-based, Staphylococcus aureus; conditions: for MIC: Staphylococcus aureus, ATCC6538, standard strain, 18 h; for MIC used in biofilm eradication assay, S. aureus 6538: Table S1, MIC
[25] = test system: S. aureus 5595; assay: MIC, twofold microdilution, clinical strain; type: cell-based; conditions: Staphylococcus aureus, 18 h
[26] = test system: M. tuberculosis H37Rv; assay: Tuberculostatic activity, Microplate Alamar Blue Assay (MIC); type: cell-based, Mycobacterium tuberculosis; conditions: Mycobacterium tuberculosis, H37RV; MABA; read-out: MIC M. tuberculosis H37Rv
[27] = test system: E. cloacae 8; assay: MIC, twofold microdilution, clinical strain; type: cell-based, Escherichia cloacae; conditions: Enterobacter cloacae, 8; clinical strain, 18 h
[28] = test system: E. coli 600; assay: MIC, twofold microdilution, clinical strain; type: cell-based, Escherichia coli; conditions: Escherichia coli, 600, 18 h
[29] = test system: P. aeruginosa 37; assay: MIC, twofold microdilution, clinical strain; type: cell-based; conditions: Pseudomonas aeruginosa, 18 h

Row | SMILES | MIC [1] | MIC [2] | MIC [3] | MIC [4] | MIC [5] | MIC [6] | MIC [7] | MIC [8] | MIC [9] | IC50 ([10]; Homo sapiens, PC-3, 72 h) | MIC [11] | IC50 at 72 h [12] | MIC [13] | MIC [14] | MIC [15] | MIC [16] | MIC [17] | MIC [18] | MIC [20] | MIC [21] | other results
1 | O=C(O)c1cn(C2CC2)c2cc(N3CCN(C(=O)CCl)CC3)c(F)cc2c1=O [Compound 3, 7-[4-(2-Chloroacetyl)-piperazin-1-yl]-1-cyclopropyl-6-fluoro-4-oxo-1,4-dihydro-quinoline-3-carboxylic Acid] | 0.2 µg/mL (≈ 0.49 µM) | 0.2 µg/mL (≈ 0.49 µM) | 12.8 µg/mL (≈ 31.4 µM) | > 25.6 µg/mL | 0.1 to 0.2 µg/mL (≈ 0.245 to 0.49 µM) | 0.1 to 0.2 µg/mL (≈ 0.245 to 0.49 µM) | 0.1 µg/mL (≈ 0.245 µM) | 2 µg/mL (≈ 4.9 µM) | > 25.6 µg/mL | 2.02 to 4.8 µM | 0.1 µg/mL (≈ 0.245 µM) | 35.7 ± 8.2 µM | 0.2 µg/mL (≈ 0.49 µM) | 0.4 µg/mL (≈ 0.981 µM) | 0.2 µg/mL (≈ 0.49 µM) | 25.6 µg/mL (≈ 62.8 µM) | 6.4 µg/mL (≈ 15.7 µM) | > 25.6 µg/mL | 0.2 µg/mL (≈ 0.49 µM) | 0.4 µg/mL (≈ 0.981 µM) | MIC S. aureus T5591 ([5]; 18 h): 0.1 µg/mL (≈ 0.245 µM); MIC S. aureus T5595 ([6]; 18 h): 0.2 µg/mL (≈ 0.49 µM); IC50 [10]: 2.02 ± 0.1 µM; times more powerful than CP ([19]; S. aureus T5595 and T5591): 1.25–2.5 times; MIC ([19]; clinical strains, read-out: MIC against selected E. coli and E. cloacae strains): 0.1 to 0.8 µg/mL (≈ 0.245 to 1.96 µM); MIC [22]: 0.2 µg/mL (≈ 0.49 µM); MIC [23]: > 25.6 µg/mL; MIC [24]: 0.2 µg/mL (≈ 0.49 µM); MIC [25]: 0.4 µg/mL (≈ 0.981 µM); MIC [26]: 4 µg/mL (≈ 9.81 µM); MIC [27]: 0.8 µg/mL (≈ 1.96 µM); MIC [28]: 0.4 µg/mL (≈ 0.981 µM); MIC [29]: > 25.6 µg/mL
2 | O=C(O)c1cn(C2CC2)c2cc(N3CCN(C(=O)CCCCl)CC3)c(F)cc2c1=O [Compound 5, 7-[4-(4-Chlorobutyryl)-piperazin-1-yl]-1-cyclopropyl-6-fluoro-4-oxo-1,4-dihydro-quinoline-3-carboxylic Acid] | 0.4 µg/mL (≈ 0.918 µM) | 0.4 µg/mL (≈ 0.918 µM) | 12.8 µg/mL (≈ 29.4 µM) | 0.8 µg/mL (≈ 1.84 µM) | 0.4 µg/mL (≈ 0.918 µM) | 0.4 µg/mL (≈ 0.918 µM) | 0.2 µg/mL (≈ 0.459 µM) | 0.5 µg/mL (≈ 1.15 µM) | > 25.6 µg/mL | 97.2 ± 11 µM | 0.2 µg/mL (≈ 0.459 µM) | > 100 µM | 0.8 µg/mL (≈ 1.84 µM) | 0.025 µg/mL (≈ 0.0574 µM) | 0.2 µg/mL (≈ 0.459 µM) | 6.4 µg/mL (≈ 14.7 µM) | 0.2 µg/mL (≈ 0.459 µM) | 0.8 µg/mL (≈ 1.84 µM) | 0.2 µg/mL (≈ 0.459 µM) | 0.4 µg/mL (≈ 0.918 µM) | share of the reference (CP) activity [16]: 62.5%; MIC used in biofilm eradication assay, P. aeruginosa 15442 [17]: 0.200 µg/mL (≈ 0.459 µM); share of the reference (CP) activity ([19]; S. aureus T5595 and T5591): 62.5%; MIC [22]: 0.025 µg/mL (≈ 0.0574 µM); MIC used in biofilm eradication assay, E. coli ATCC 25922 [22]: 0.025 µg/mL (≈ 0.0574 µM); MIC [23]: > 25.6 µg/mL; MIC [24]: 0.2 µg/mL (≈ 0.459 µM); MIC used in biofilm eradication assay, S. aureus 6538 [24]: 0.200 µg/mL (≈ 0.459 µM); MIC [25]: 0.4 µg/mL (≈ 0.918 µM); MIC [26]: 0.5 µg/mL (≈ 1.15 µM); MIC [27]: 0.05 µg/mL (≈ 0.115 µM); MIC [28]: 0.025 µg/mL (≈ 0.0574 µM); MIC [29]: 0.8 µg/mL (≈ 1.84 µM)
3 | O=C(O)c1cn(C2CC2)c2cc(N3CCN(C(=O)CCCBr)CC3)c(F)cc2c1=O [Compound 10, 7-[4-(4-Bromobutyryl)-piperazin-1-yl]-1-cyclopropyl-6-fluoro-4-oxo-1,4-dihydro-quinoline-3-carboxylic Acid] | 0.2 µg/mL (≈ 0.416 µM) | 0.4 µg/mL (≈ 0.833 µM) | 25.6 µg/mL (≈ 53.3 µM) | 0.8 µg/mL (≈ 1.67 µM) | 0.8 µg/mL (≈ 1.67 µM) | 0.8 µg/mL (≈ 1.67 µM) | 0.2 µg/mL (≈ 0.416 µM) | 0.5 µg/mL (≈ 1.04 µM) | > 25.6 µg/mL | 84.1 ± 7.3 µM | 0.1 µg/mL (≈ 0.208 µM) | 89.1 ± 2.1 µM | 0.4 µg/mL (≈ 0.833 µM) | 0.1 µg/mL (≈ 0.208 µM) | 0.2 µg/mL (≈ 0.416 µM) | 6.4 µg/mL (≈ 13.3 µM) | 0.1 µg/mL (≈ 0.208 µM) | 0.4 µg/mL (≈ 0.833 µM) | 0.4 µg/mL (≈ 0.833 µM) | 0.8 µg/mL (≈ 1.67 µM) | share of the reference (CP) activity [16]: 62.5%; MIC used in biofilm eradication assay, P. aeruginosa 15442 [17]: 0.100 µg/mL (≈ 0.208 µM); share of CP inhibitory activity ([19]; S. aureus 180 and 5595): 62.5%; MIC [22]: 0.025 µg/mL (≈ 0.052 µM); MIC used in biofilm eradication assay, E. coli ATCC 25922 [22]: 0.025 µg/mL (≈ 0.052 µM); MIC [23]: > 25.6 µg/mL; MIC [24]: 0.2 µg/mL (≈ 0.416 µM); MIC used in biofilm eradication assay, S. aureus 6538 [24]: 0.200 µg/mL (≈ 0.416 µM); MIC [25]: 0.8 µg/mL (≈ 1.67 µM); MIC [26]: 1 µg/mL (≈ 2.08 µM); MIC [27]: 0.05 µg/mL (≈ 0.104 µM); MIC [28]: 0.05 µg/mL (≈ 0.104 µM); MIC [29]: 0.8 µg/mL (≈ 1.67 µM)
4 | O=C(O)c1cn(C2CC2)c2cc(N3CCN(CCCCCCCCCCC(=O)N4CCN(c5cc6c(cc5F)c(=O)c(C(=O)O)cn6C5CC5)CC4)CC3)c(F)cc2c1=O [Compound 21, CP–Undecanoyl–CP Dimer] | 25.6 µg/mL (≈ 30.9 µM) | 12.8 µg/mL (≈ 15.4 µM) | > 25.6 µg/mL | > 25.6 µg/mL | > 25.6 µg/mL | > 25.6 µg/mL | 12.8 µg/mL (≈ 15.4 µM) | 2 µg/mL (≈ 2.41 µM) | > 25.6 µg/mL | 4.8 ± 0.1 µM | 12.8 µg/mL (≈ 15.4 µM) | 73.2 ± 10.1 µM | 12.8 µg/mL (≈ 15.4 µM) | > 25.6 µg/mL | > 25.6 µg/mL | > 25.6 µg/mL | > 25.6 µg/mL | > 25.6 µg/mL | > 25.6 µg/mL | > 25.6 µg/mL | fold stronger cytotoxic properties than cisplatin ([10]; PC3): 2.75 fold; MIC [22]: 25.6 µg/mL (≈ 30.9 µM); MIC [23]: > 25.6 µg/mL; MIC [24]: 12.8 µg/mL (≈ 15.4 µM); MIC [25]: > 25.6 µg/mL; MIC [26]: 2 µg/mL (≈ 2.41 µM); MIC [27]: > 25.6 µg/mL; MIC [28]: > 25.6 µg/mL; MIC [29]: > 25.6 µg/mL
